# Read-outs that look alike come from different tables or passages of the source.
# How the values were obtained:
# [1] = system: cryopreserved hepatocytes; assay: Hepatocyte stability assay, dog; conditions: 3 μM
# Method: (§3) Test compound (3 μM) was incubated with cryopreserved hepatocytes in suspension. Samples are removed at 6 time points over the course of 120 minutes and analysed by LC-MS/MS.
# UGT2B7 = UGT2B7 (Homo sapiens, UniProt P16662); assay: UGT inhibition assay UGT2B7; type: in vitro ADME
# MAO-B = MAO-B (Homo sapiens, UniProt P27338); assay: Binding assay MAO-B
# From the text: (§1) 2R,6R-hydroxynorketamine was investigated for binding to monoamine oxidases A and B, monoamine transporters, as well as a variety of 5HT receptors.
# 5-HT2C = molecular target: T1, 5-HT2C (Homo sapiens, UniProt P28335); assay: Binding assay 5-HT2C
# T1 sequence (P28335 33-458): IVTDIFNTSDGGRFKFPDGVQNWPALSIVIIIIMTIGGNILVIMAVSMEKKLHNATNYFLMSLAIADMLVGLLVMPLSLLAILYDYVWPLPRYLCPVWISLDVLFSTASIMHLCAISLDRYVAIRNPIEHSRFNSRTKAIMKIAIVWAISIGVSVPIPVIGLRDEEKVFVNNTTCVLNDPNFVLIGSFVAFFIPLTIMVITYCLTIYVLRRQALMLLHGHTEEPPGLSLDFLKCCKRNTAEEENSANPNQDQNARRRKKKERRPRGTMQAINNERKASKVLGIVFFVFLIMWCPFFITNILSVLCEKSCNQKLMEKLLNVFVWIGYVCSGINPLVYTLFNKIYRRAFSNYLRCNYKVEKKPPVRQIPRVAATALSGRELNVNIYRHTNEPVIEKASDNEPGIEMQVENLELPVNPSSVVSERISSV
# From the text: as §1
# 5-HT1, Non-Selective = assay: Binding assay 5-HT1, Non-Selective
# From the text: as §1
# An absence of interaction between 2R,6R-hydroxynorketamine and 5HT1 receptors is also of note. Rare postmarketing reports have described patients with weakness, hyperreflexia, and incoordination following the use of an SSRI and the 5HT1 agonist, sumatriptan. The possibility of such interactions should also be considered if other 5HT1 agonists are to be used in combination with SSRIs.
# CYP2B6 = molecular target: T2, CYP2B6 (Homo sapiens, UniProt P20813); assay: CYP inhibition assay CYP2B6; type: in vitro ADME
# T2 sequence (P20813 1-491): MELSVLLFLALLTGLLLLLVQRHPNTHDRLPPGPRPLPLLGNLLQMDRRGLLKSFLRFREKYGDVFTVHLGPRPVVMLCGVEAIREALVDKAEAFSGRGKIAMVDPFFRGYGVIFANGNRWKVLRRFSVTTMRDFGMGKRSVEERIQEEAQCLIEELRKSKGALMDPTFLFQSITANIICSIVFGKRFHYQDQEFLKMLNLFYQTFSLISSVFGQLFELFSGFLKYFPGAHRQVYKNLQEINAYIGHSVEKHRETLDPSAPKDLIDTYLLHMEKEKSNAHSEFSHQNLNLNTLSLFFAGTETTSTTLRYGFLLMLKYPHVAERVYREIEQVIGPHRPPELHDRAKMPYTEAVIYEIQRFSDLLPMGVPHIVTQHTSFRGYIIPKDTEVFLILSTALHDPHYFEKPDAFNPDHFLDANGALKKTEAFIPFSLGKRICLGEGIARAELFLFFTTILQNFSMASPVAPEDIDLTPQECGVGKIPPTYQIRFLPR
# From the text: (§2) Cytochrome P450s (CYPs) are a family of enzymes that play a primary role in the metabolism of a wide variety of drugs. 2R,6R-hydroxynorketamine was investigated for its potential to inhibit the action of 7 key CYP enzymes using an inhibition assay measuring reduction in the formation of metabolites compared to control.
# 5-HT2A = 5-HT2A (Homo sapiens, UniProt P28223); assay: Binding assay 5-HT2A
# From the text: as §1
# Metabolite profiling = type: in vitro ADME
# CYP2C19 = CYP2C19 (Homo sapiens, UniProt P33261); assay: CYP inhibition assay CYP2C19; type: in vitro ADME
# From the text: as §2
# CYP2C9 = CYP2C9 (Homo sapiens, UniProt P11712); assay: CYP inhibition assay CYP2C9; type: in vitro ADME
# From the text: as §2
# 5-HT2B = 5-HT2B (Homo sapiens, UniProt P41595); assay: Binding assay 5-HT2B
# From the text: as §1
# UGT1A1 = UGT1A1 (Homo sapiens, UniProt P22309); assay: UGT inhibition assay UGT1A1; type: in vitro ADME
# From the text: 2R,6R-hydroxynorketamine was therefore investigated for its potential to inhibit this isozyme, along with that of the major UGT isozyme, UGT1A1, using a UGT inhibition assay.
# [2] = system: cryopreserved hepatocytes; assay: Hepatocyte stability assay, human
# Method: as §3
# [3] = system: cryopreserved hepatocytes; assay: Hepatocyte stability assay, rat; conditions: 3 μM
# Method: as §3
# Sequence of 5-HT2A (P28223 whole entry): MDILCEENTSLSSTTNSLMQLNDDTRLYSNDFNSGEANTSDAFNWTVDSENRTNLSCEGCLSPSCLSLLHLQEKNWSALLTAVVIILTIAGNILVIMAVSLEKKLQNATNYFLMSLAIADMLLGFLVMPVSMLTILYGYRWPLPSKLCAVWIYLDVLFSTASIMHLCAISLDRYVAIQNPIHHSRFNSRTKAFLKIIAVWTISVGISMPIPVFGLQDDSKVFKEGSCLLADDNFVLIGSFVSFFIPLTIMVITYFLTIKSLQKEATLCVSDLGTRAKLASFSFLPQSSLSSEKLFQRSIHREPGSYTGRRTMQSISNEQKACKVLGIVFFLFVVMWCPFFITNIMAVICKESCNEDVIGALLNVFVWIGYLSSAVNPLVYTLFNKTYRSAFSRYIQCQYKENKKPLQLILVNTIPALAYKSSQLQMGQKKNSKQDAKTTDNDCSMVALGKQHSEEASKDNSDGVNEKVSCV
# Sequence of CYP2C19 (P33261 whole entry): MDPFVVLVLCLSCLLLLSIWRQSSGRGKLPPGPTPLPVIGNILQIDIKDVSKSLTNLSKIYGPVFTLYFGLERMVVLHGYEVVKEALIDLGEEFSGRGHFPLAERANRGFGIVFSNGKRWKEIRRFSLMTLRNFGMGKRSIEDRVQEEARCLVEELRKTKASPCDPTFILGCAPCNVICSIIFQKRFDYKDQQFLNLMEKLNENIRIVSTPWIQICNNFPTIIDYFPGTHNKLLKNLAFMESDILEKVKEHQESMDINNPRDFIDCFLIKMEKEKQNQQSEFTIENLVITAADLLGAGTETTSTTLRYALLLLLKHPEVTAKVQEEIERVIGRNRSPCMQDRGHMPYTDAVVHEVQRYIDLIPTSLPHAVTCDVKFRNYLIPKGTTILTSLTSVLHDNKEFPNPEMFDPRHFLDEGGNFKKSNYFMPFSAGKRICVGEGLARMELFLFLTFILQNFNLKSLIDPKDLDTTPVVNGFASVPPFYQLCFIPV
# Sequence of 5-HT2B (P41595 whole entry, species assumed): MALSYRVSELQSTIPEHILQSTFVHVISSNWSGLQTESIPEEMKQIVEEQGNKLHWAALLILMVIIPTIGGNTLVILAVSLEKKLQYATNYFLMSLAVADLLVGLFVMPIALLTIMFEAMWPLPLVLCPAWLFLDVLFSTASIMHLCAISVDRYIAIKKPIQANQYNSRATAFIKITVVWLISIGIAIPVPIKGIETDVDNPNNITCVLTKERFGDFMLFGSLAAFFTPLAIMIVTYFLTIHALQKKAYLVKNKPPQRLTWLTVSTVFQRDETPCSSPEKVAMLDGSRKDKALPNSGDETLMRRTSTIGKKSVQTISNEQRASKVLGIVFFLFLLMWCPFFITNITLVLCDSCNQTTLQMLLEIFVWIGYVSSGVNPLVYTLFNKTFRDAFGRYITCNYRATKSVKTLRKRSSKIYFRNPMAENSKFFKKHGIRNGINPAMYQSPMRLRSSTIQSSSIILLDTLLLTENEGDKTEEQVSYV
# Sequence of CYP2C9 (P11712 whole entry): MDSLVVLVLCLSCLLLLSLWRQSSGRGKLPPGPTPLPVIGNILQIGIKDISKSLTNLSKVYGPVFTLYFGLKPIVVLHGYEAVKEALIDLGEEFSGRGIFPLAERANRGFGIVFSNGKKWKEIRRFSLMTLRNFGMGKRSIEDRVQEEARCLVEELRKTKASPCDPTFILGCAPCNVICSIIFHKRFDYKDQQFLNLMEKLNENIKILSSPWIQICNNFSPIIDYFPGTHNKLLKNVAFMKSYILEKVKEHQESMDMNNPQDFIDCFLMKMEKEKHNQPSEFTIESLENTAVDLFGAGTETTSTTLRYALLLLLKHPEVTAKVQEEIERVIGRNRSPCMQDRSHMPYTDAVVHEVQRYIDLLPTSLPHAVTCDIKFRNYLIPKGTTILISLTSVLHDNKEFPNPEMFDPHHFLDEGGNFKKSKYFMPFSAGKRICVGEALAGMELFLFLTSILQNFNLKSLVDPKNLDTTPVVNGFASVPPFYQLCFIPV
# Sequence of MAO-B (P27338 whole entry, species assumed): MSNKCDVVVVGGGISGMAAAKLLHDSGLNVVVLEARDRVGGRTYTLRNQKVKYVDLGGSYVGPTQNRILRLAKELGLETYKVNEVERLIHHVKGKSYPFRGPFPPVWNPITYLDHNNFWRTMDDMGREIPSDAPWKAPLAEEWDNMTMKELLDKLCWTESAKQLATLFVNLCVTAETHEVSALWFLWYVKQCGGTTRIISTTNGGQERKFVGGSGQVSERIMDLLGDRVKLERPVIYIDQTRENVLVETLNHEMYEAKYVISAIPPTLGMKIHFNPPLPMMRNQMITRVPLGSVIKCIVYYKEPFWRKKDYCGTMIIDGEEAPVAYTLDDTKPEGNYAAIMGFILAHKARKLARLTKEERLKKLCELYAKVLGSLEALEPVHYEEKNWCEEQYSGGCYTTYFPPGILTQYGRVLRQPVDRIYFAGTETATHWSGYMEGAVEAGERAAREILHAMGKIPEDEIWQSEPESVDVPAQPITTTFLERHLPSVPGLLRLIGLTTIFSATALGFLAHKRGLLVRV
# Sequence of UGT2B7 (P16662 24-529): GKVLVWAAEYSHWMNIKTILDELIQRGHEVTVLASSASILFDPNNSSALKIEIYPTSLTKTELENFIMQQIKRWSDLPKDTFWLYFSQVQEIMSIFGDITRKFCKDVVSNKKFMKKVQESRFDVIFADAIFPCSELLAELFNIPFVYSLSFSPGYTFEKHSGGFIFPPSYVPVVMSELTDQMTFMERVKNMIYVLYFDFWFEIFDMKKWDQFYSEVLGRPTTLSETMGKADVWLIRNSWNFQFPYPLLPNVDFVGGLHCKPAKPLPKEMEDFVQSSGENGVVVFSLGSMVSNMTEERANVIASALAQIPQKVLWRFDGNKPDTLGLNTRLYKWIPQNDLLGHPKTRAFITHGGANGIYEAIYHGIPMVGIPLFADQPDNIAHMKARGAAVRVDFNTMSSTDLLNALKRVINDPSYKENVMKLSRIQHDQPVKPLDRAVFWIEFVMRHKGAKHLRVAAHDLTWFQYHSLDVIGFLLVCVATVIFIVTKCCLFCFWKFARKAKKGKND
# Sequence of UGT1A1 (P22309 26-533): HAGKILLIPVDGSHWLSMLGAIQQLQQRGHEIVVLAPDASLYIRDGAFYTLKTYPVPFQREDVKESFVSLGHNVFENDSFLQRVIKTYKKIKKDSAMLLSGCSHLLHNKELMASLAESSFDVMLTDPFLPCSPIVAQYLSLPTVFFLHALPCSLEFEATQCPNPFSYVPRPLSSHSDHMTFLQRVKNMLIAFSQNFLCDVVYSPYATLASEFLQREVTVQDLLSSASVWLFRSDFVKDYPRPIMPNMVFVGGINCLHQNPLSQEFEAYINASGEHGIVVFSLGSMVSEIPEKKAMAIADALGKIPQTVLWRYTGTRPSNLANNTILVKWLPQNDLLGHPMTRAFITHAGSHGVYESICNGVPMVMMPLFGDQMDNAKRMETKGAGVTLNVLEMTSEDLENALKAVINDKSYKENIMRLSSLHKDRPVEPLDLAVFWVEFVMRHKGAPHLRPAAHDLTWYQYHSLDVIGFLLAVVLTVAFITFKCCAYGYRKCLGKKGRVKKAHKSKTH
smiles,measurement,setting,value
"N[C@@]1(c2ccccc2Cl)CCC[C@@H](O)C1=O [2R,6R-hydroxynorketamine, 2R,6R-2-(2-Chlorophenyl)-2-(amino)-6-hydroxycyclohexanone]",substrate of p-gp or Breast Cancer Resistance Protein (BCRP) efflux transporters,Caco-2; Caco-2,not a substrate
same,permeability (in words),Caco-2; Caco-2 permeability assay,high
same,Mean % Recovery,Caco-2; Direction = A2B,98.9%
same,Mean Papp,Caco-2; Direction = A2B,45.7 10^−6 cms^−1
same,Papp Replicate 1,Caco-2; Direction = A2B,49.1 10^−6 cms^−1
same,Papp Replicate 2,Caco-2; Direction = A2B,42.3 10^−6 cms^−1
same,Mean % Recovery,Caco-2; Direction = B2A,103%
same,Mean Papp,Caco-2; Direction = B2A,50.7 10^−6 cms^−1
same,Papp Replicate 1,Caco-2; Direction = B2A,52.8 10^−6 cms^−1
same,Papp Replicate 2,Caco-2; Direction = B2A,48.5 10^−6 cms^−1
same,CLint,[1],4.72 μL/min/10^6 cells
same,t1/2,[1],4.9 h
same,inhibition of UGT2B7 (in words),UGT2B7,does not inhibit
same,% Inhibition of Control Specific Binding,MAO-B,−1%
same,% of Control Specific Binding,MAO-B,100.4%
same,% Inhibition of Control Specific Binding,5-HT2C,10%
same,% of Control Specific Binding,5-HT2C,91.1%
same,binding to 5HT2C receptor subtype (in words),5-HT2C,does not bind
same,% Inhibition of Control Specific Binding,"5-HT1, Non-Selective",−9%
same,% of Control Specific Binding,"5-HT1, Non-Selective",105.4%
same,binding to 5HT1 receptors (in words),"5-HT1, Non-Selective",does not bind
same,inhibition of CYP2B6 (in words),CYP2B6,did not inhibit
same,% Inhibition,CYP2B6; 0.4 μM,6.03%
same,% Inhibition,CYP2B6; 1 μM,10.1%
same,% Inhibition,CYP2B6; 4 μM,10.6%
same,% Inhibition,CYP2B6; 10 μM,14.4%
same,% Inhibition,CYP2B6; 40 μM,14.8%
same,% Inhibition,CYP2B6; 100 μM,16.7%
same,% Inhibition of Control Specific Binding,5-HT2A,0%
same,% of Control Specific Binding,5-HT2A,103.8%
same,binding to 5HT2A receptor subtype (in words),5-HT2A,does not bind
same,metabolic route (in words),Metabolite profiling,"does not undergo phase I metabolism by CYP enzymes, but is glucuronidated"
same,inhibition of CYP2C19 (in words),CYP2C19,did not inhibit
same,% Inhibition,CYP2C19; 0.4 μM,−2.01%
same,% Inhibition,CYP2C19; 1 μM,−1.66%
same,% Inhibition,CYP2C19; 4 μM,1.85%
same,% Inhibition,CYP2C19; 10 μM,6.69%
same,% Inhibition,CYP2C19; 40 μM,8.25%
same,% Inhibition,CYP2C19; 100 μM,16.1%
same,inhibition of CYP2C9 (in words),CYP2C9,did not inhibit
same,% Inhibition,CYP2C9; 0.4 μM,4.59%
same,% Inhibition,CYP2C9; 1 μM,5.92%
same,% Inhibition,CYP2C9; 4 μM,5.80%
same,% Inhibition,CYP2C9; 10 μM,11.9%
same,% Inhibition,CYP2C9; 40 μM,−0.113%
same,% Inhibition,CYP2C9; 100 μM,−1.33%
same,% Inhibition of Control Specific Binding,5-HT2B,5%
same,% of Control Specific Binding,5-HT2B,100.9%
same,binding to 5HT2B receptor subtype (in words),5-HT2B,does not bind
same,inhibition of UGT1A1 (in words),UGT1A1,does not inhibit
same,hepatic clearance in humans (in words),[2],does not undergo hepatic clearance
same,CLint,[3],55.2 μL/min/10^6 cells
same,t1/2,[3],0.418 h
